One data set concerns choline transporters. The data set is described as follows: In vitro determination of IC50: inhibition of [^3H]choline chloride accumulation in PC-3 cells. It is filed as cell-based. As to conditions: cell line PC-3 (human prostate carcinoma), [^3H]choline chloride 0.81 × 10^-6 M, 60 min at 37 °C. As to the method: IC50 value corresponds to a concentration of the given analog of choline which reduces the accumulation of choline chloride, the natural ligand of choline transporterss, to 50 % of the maximum value. For the assay, the tritium labeled choline chloride, i.e. [^3H]choline chloride, was used. The assay was performed in vitro on the cell line PC-3 derived from a human prostate carcinoma, which is known to overexpress choline transporters. […] As the negative control, a cell line of human ovarian carcinoma SKOV3 prepared to the confluence of 90 % in 24-well plates was used.
The cultivation medium was removed from the thus prepared cells in cultivation plates and the cells were rinsed with phosphate buffered saline (PBS). Subsequently, 0.3 mL of "incubation buffer" (25 mM Tris/HCl, 5.4 mM KCl, 1.8 mM CaCl2, 0.8 mM MgSO4, 5 mM glucose, 140 mM NaCl, pH adjusted to 7.4) was added to the cells. Then 0.1 mL of the solution of the tested substance (analog of choline) in the incubation buffer was added to the PC-3 cells in such concentrations, that after adding [^3H]choline chloride the resulting concentrations of the tested analog would be following: 0 M, 10^-8 M, 10^-7 M, 10^-6 M, 5 × 10^-6 M, 10^-5 M, 10^-4 M, 5 × 10^-4 M, 10^-3 M, 5×10^-3 M. Each concentration was tested in triplicate.
Subsequently, all cells prepared in this manner (PC-3 and SKOV3) were incubated with the analogs of choline for 15 minutes at the temperature of 37 °C.
Then 0.1 mL of the solution of the [^3H]choline chloride in the incubation buffer was added to all cell-containing wells, so that 0.1 mL of the solution had the activity of 15 kBq and that the final concentration of the [^3H]choline chloride in the medium with the cells was 0.81 × 10^-6 M. The cells were then incubated at 37 °C for a period of 60 min. After the incubation, all buffer solution was removed from the cells. The cells were rinsed with PBS, which was subsequently removed, and 0.2 mL of aqueous NaOH solution (0.1 M) was added to each well. The cells were incubated with sodium hydroxide for 30 min at 37 °C. The lysate was then homogenized with a pipette and 10 µL of the lysate were used for the determination of protein concentration by bicinchonic acid assay (BCA).
The remaining lysate (180 µL) was quantitatively transferred into scintillation vials containing a previously prepared scintillation solution (2 mL of the solution in each vial). Each well was then additionally rinsed with 0.2 mL of pure water and this solution was added to the corresponding scintillation vials. Scintillation vials were closed and their content was stirred on a shaker.
To another three scintillation vials containing scintillation solution (2 mL of the solution in each vial) the standard samples of [^3H]choline chloride were added (i.e. 10 µl of the [^3H]choline chloride solution together with 180 µl of aqueous NaOH solution (0.1 M) and 200 µl of water). The vials were closed and their content was stirred on the shaker.
Subsequently, radioactivity of each scintillation vial was measured using a liquid scintillation counter (Tri-Carb 2910TR Liquid Scintillation Counter, PerkinElmer). The recorded counts per second (cps) were then used to calculate the accumulation of [^3H]choline chloride in the individual cell samples. […] These values were used to construct a sigmoid curve of dependence between the rate of [^3H]choline chloride accumulation and the competing ligand (analog of choline) concentration(inhibition curve, Figure 2). The IC50 values were calculated from these inhibition curves.

Data set [1] can be described thus: Binding to plasmatic proteins. As to conditions: plasma.
A further data set is described as follows: in vitro. To be noted: liver microsomes. On the technique in general: Microsomes from liver hold many membrane-bound enzymes, among them those of drug oxidation.
The nature of another data set: Microsomal stability. As to conditions: hepatic microsomes.

From patent EP3423441B1, “IODINATED ANALOGS OF CHOLINE, METHODS OF PREPARATION THEREOF, AND USE THEREOF AS MEDICAMENTS” (Univerzita Palackého v Olomouci, priority 2016, dated 2017) come the findings set out here.

Regarding `OCC[N+]1(Cc2ccccc2I)CCOCC1` [Example 36, 4-(2-hydroxyethyl)-4-(2-iodobenzyl)morpholin-4-ium chloride], the IC50 in the data set with choline transporters amounted to 43 µM. This lies in the double-digit micromolar range.

Turning to `Cc1ccc(S(=O)(=O)[O-])cc1.OC1C[N+]2(CCc3ccc(I)cc3)CCC1CC2` (stereo not drawn) [Example 8, 3-hydroxy-1-[2-(4-iodophenyl)ethyl]quinuclidin-1-ium 4-methylbenzenesulfonate], the IC50 in the data set on choline transporters came out at 120 µM. Further, the fraction unbound in data set [1] was 0.717. In the data set “in vitro”, this molecule yielded a microsomal CLint of 39.8 µL/min/mg. Further, the “Microsomal stability t1l2” value in the data set “Microsomal stability” is 34.8 min. Besides, the “Plasma stability (120 min)” value in “Stability in the plasma” stood at 89.9%.

In the data set on choline transporters, `OCC[N+]1(Cc2ccc(I)cc2)CCOCC1` [Example 35, 4-(2-hydroxyethyl)-4-(4-iodobenzyl)morpholin-4-ium bromide] returned an IC50 of 270 µM.

Molecule `C[N+](C)(CCO)CCOc1ccc(I)cc1` [Example 25, (2-hydroxyethyl)-[2-(4-iodophenoxy)ethyl]-dimethylammonium bromide] showed a half-inhibitory concentration (IC50) in the data set on choline transporters of 23 µM.

With `OCC[N+]1(CCOc2ccccc2I)CCCC1` [Example 24, 1-(2-hydroxyethyl)-1-[2-(2-iodophenoxy)ethyl]pyrrolidin-1-ium bromide], the IC50 in the data set on choline transporters was 4.7 µM.

Regarding `OCC[N+]1(CCc2ccc(I)s2)CCCC1` [Example 34, 1-(2-hydroxyethyl)-1-[2-(5-iodothiophen-2-yl)ethyl]pyrrolidin-1-ium 4-methylbenzenesulfonate], the IC50 with choline transporters is 10 µM.

`CCCCCCOc1ccc(CCC[N+](C)(C)CCO)cc1I` [Example 21, [3-(4-hexyloxy-3-iodophenyl)propyl]-(2-hydroxyethyl)-dimethylammonium 4-methylbenzenesulfonate]: the IC50 with choline transporters was determined as 0.43 µM. Compared with the last molecule, the IC50 is about 23-fold lower.

The molecule `CCCCCCCCCCOc1ccc(CCC[N+](C)(C)CCO)cc1I` [Example 22, [3-(4-decyloxy-3-iodophenyl)propyl]-(2-hydroxyethyl)-dimethylammonium methanesulfonate] showed an IC50 in the data set on choline transporters of 1.9 µM.

In turn, `OCC[N+]1(Cc2cccc(I)c2)CCCC1` [Example 10, 1-(2-hydroxyethyl)-1-(3-iodobenzyl)pyrrolidin-1-ium methanesulfonate] had an IC50 in the data set on choline transporters of 13 µM.

On to `C[N+](C)(CF)CCO` [Fluoromethylcholine, reference compound], for which, in the data set with choline transporters, the IC50 was determined as 16 µM.

For the molecule `C[N+](C)(CCO)Cc1ccccc1I.Cc1ccc(S(=O)(=O)[O-])cc1` [Example 19, (2-hydroxyethyl)-(2-iodobenzyl)-dimethylammonium 4-methylbenzenesulfonate], the IC50 with choline transporters turned out to be 160 µM. The fraction unbound in data set [1] was 0.661. Moreover, in the data set “in vitro”, the microsomal CLint was determined as 166 µL/min/mg. Also, the “Microsomal stability t1l2” value in “Microsomal stability” was 8.3 min. The “Plasma stability (120 min)” value in the data set “Stability in the plasma” is reported as 91.3%.

Consider `Cc1ccc(S(=O)(=O)[O-])cc1.OC1C[N+]2(Cc3ccccc3I)CCC1CC2` (stereo not drawn) [Example 18, 3-hydroxy-1-(2-iodobenzyl)quinuclidin-1-ium 4-methylbenzenesulfonate], for which the IC50 with choline transporters amounted to 180 µM. This molecule also showed a fraction unbound in data set [1] of 0.903. The molecule also showed a microsomal CLint in the data set “in vitro” of 63 µL/min/mg. Further, the “Microsomal stability t1l2” value in “Microsomal stability” amounted to 22.0 min. Also, the “Plasma stability (120 min)” value in the data set “Stability in the plasma” was 73.4%.

In the data set on choline transporters, `Cc1ccc(S(=O)(=O)[O-])cc1.OCCN1CC[N+](CCO)(Cc2ccccc2I)CC1` [Example 17, 1,4-bis(2-hydroxyethyl)-1-(2-iodobenzyl)piperazin-1-ium 4-methylbenzenesulfonate] returned an IC50 of 740 µM. In data set [1], this molecule gave a fraction unbound of 0.943. The microsomal CLint in the data set “in vitro” came to 0.8 µL/min/mg. For the same molecule, the “Microsomal stability t1l2” value in “Microsomal stability” was determined as 1732.5 min. Besides, the “Plasma stability (120 min)” value in the data set “Stability in the plasma” is reported as 58.4%.

The molecule `CC[N+](CC)(CCO)Cc1ccc(I)cc1` [Example 12, diethyl-(2-hydroxyethyl)-(4-iodobenzyl)ammonium bromide] showed an IC50 in the data set on choline transporters of 80 µM.

`C[N+](C)(CCO)CCc1ccc(I)s1` [Example 33, (2-hydroxyethyl)-[2-(5-iodothiophen-2-yl)ethyl]-dimethylammonium 4-methylbenzenesulfonate]: the IC50 in the data set with choline transporters turned out to be 0.45 µM.

With `C[N+](C)(CCO)CCCCOc1ccc(-c2ccccc2)cc1I` [Example 39, (2-hydroxyethyl)-{4-[(3-iodo-[1,1'-biphenyl]-4-yl)oxy]butyl}-dimethylammonium bromide], half-maximal inhibition in the data set on choline transporters (IC50) required 1.3 µM.

As for `C[N+](C)(CCO)Cc1cccc(I)c1` [Example 9, (2-hydroxyethyl)-(3-iodobenzyl)-dimethylammonium methanesulfonate], in the data set with choline transporters, the IC50 was 99 µM. This IC50 lies about 76-fold higher than the previous one.

For the molecule `OCC[N+]1(Cc2ccc(I)cc2)CCCC1` [Example 13, 1-(2-hydroxyethyl)-1-(4-iodobenzyl)pyrrolidin-1-ium bromide], the IC50 in the data set on choline transporters is 29 µM.

As to `C[N+](C)(CCO)CCCCOc1ccccc1I` [Example 31, (2-hydroxyethyl)-[4-(2-iodophenoxy)butyl]-dimethylammonium bromide], half-maximal inhibition in the data set with choline transporters (IC50) required 11 µM.

In the case of `OCC[N+]1(CCOc2cccc(I)c2)CCCC1` [Example 28, 1-(2-hydroxyethyl)-1-[2-(3-iodophenoxy)ethyl]pyrrolidin-1-ium bromide], it took 15 µM to reach half-maximal inhibition in the data set on choline transporters (IC50).

`C[N+](C)(CCO)Cc1ccc(I)cc1` [Example 11, (2-hydroxyethyl)-(4-iodobenzyl)-dimethylammonium bromide]: the IC50 in the data set on choline transporters amounted to 150 µM. Compared with the last molecule, the IC50 is about 10-fold higher.

In turn, `C[N+](C)(CCO)CCCCCCOc1ccc(I)c([N+](=O)[O-])c1` [Example 40, (2-hydroxyethyl)-[6-(4-iodo-3-nitrophenoxy)hexyl]-dimethylammonium bromide] came in with an IC50 in the data set with choline transporters of 0.14 µM.

In the case of `OCC[N+]1(CCCCOc2ccccc2I)CCCC1` [Example 32, 1-(2-hydroxyethyl)-1-[4-(2-iodophenoxy)butyl]pyrrolidin-1-ium bromide], in the data set with choline transporters, the IC50 amounted to 5.1 µM.

For `OCC[N+]1(CCCCCCOc2cccc(I)c2)CCCC1` [Example 30, 1-(2-hydroxyethyl)-1-[6-(3-iodophenoxy)hexyl]pyrrolidin-1-ium bromide], the midpoint of inhibition in the data set on choline transporters, the IC50, lay at 0.91 µM.

With `OCC[N+]1(CCOc2ccc(I)cc2)CCCC1` [Example 26, 1-(2-hydroxyethyl)-1-[2-(4-iodophenoxy)ethyl]pyrrolidin-1-ium bromide], half-maximal inhibition in the data set with choline transporters (IC50) required 18 µM.

For the molecule `C[N+](C)(CCO)CCCCCCOc1cccnc1I` [Example 37, (2-hydroxyethyl)-{6-[(2-iodopyridin-3-yl)oxy]hexyl}-dimethylammonium bromide], the IC50 in the data set with choline transporters was found to be 1.4 µM. Compared with the last molecule, the IC50 is about 13-fold lower.

Consider `OCC[N+]1(Cc2ccc(I)cc2)CCCC1` [Example 20, 1-(2-hydroxyethyl)-1-(4-iodobenzyl)pyrrolidin-1-ium 4-methylbenzenesulfonate], for which, in the data set with choline transporters (4-methylbenzenesulfonate), the IC50 is 6.3 µM. In the data set “in vitro”, this molecule yielded a microsomal CLint of 310 µL/min/mg.

On to “(2-hydroxyethyl)-{4-[(2-iodo-6-methylpyridin-3-yl)oxy]butyt}-dimethylammonium bromide [Example 38]”, for which, in the data set on choline transporters, the IC50 is 18 µM.

`C[N+](C)(CCO)CCOc1cccc(I)c1` [Example 27, (2-hydroxyethyl)-[2-(3-iodophenoxy)ethyl]-dimethylammonium bromide] displayed an IC50 with choline transporters of 22 µM.

As to `C[N+](C)(CCO)CCCCCCOc1cccc(I)c1` [Example 29, (2-hydroxyethyl)-[6-(3-iodophenoxy)hexyl]-dimethylammonium bromide], in the data set on choline transporters, the IC50 is 0.044 µM.

Turning to `C[N+](C)(C)CCO` [Choline], the IC50 with choline transporters turned out to be 3.7 µM. This IC50 lies about 84-fold higher than the previous one.

As usually defined, the IC50 is the concentration at which inhibition is half-maximal. A high value points to weaker potency. By fraction unbound is commonly meant free concentration divided by total concentration. In general, microsomal CLint refers to a measure of how fast metabolising enzymes remove a compound, apart from limits set by blood flow. Read a low microsomal CLint as slow turnover.
